Measurements from patent EP1789452B1, “RELAXIN-CHIMERIC POLYPEPTIDES AND THEIR PREPARATION AND USE” (Janssen Pharmaceutica NV, priority 2004, dated 2006).

Key:
LGR7 = molecular target: T1, LGR7 (Homo sapiens, UniProt Q9HBX9); experiment: Stimulation of β-galactosidase expression in SK-N-MC/β-gal cells; assay type: cell-based
T1 construct: Human LGR7 cDNA containing the complete coding region was PCR amplified from a human brain cDNA pool; expressed in transfected cells; host or cells: COS-7 (transient, live cells)
T1 sequence (Q9HBX9 1-757): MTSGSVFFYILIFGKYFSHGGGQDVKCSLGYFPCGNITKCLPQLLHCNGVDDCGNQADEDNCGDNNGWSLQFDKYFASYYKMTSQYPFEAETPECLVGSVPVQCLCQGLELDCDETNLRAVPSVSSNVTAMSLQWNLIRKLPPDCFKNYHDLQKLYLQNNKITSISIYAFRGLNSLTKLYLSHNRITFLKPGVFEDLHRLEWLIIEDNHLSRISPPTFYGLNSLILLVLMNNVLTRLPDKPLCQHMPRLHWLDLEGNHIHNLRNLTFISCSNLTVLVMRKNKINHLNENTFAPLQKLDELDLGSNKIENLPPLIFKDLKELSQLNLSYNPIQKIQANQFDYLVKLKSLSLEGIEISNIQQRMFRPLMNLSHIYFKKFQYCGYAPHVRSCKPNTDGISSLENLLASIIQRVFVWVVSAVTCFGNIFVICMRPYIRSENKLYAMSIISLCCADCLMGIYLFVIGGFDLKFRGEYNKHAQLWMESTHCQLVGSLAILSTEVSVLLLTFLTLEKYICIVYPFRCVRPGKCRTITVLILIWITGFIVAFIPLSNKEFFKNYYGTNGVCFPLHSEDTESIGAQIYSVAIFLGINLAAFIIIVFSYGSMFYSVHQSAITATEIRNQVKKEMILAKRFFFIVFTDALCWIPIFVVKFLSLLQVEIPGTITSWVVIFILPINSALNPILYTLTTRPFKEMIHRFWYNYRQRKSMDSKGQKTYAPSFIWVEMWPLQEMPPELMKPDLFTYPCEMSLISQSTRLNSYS

LGR8 = molecular target: T2, LGR8 (Homo sapiens, UniProt Q8WXD0); experiment: as above; assay type: cell-based; conditions: highest concentration tested 1 µM
T2 construct: Human LGR8 cDNA containing the complete coding region was PCR amplified from a human testis cDNA pool; expressed in transfected cells
T2 sequence (Q8WXD0 whole entry): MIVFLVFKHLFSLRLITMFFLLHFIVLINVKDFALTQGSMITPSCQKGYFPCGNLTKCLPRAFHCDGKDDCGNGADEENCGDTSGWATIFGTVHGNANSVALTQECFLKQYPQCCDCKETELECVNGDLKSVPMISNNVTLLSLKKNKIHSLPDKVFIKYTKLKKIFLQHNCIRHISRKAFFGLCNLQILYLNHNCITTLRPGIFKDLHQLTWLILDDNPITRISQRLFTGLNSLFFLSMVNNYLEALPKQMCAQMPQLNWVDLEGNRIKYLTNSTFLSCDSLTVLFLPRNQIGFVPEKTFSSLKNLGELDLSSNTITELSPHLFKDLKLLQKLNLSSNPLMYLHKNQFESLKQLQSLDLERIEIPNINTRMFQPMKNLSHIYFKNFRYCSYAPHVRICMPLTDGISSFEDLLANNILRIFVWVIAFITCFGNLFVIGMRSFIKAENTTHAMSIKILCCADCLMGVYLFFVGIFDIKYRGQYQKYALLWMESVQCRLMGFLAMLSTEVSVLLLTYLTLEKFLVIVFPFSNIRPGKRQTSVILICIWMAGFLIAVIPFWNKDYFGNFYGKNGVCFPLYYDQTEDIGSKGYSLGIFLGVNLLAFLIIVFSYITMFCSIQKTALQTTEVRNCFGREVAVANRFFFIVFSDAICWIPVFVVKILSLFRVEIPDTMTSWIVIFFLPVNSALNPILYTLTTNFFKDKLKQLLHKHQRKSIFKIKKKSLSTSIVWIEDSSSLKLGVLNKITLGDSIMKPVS

activation of LGR7 expressing cells (LGR7): did not activate
activity towards LGR8 (LGR8): did not activate
SMILES: CC[C@H](C)[C@H](NC(=O)[C@H](Cc1ccccc1)NC(=O)[C@H](CCC(=O)O)NC(=O)[C@H](CCCNC(=N)N)NC(=O)CNC(=O)[C@H](CS)NC(=O)[C@H](CC(C)C)NC(=O)[C@H](CCCNC(=N)N)NC(=O)[C@@H](NC(=O)CNC(=O)[C@H](Cc1ccc(O)cc1)NC(=O)[C@@H]1CCCN1C(=O)[C@H](C)NC(=O)[C@H](C)NC(=O)[C@@H](N)CCCNC(=N)N)C(C)C)C(=O)N[C@@H](CCCNC(=N)N)C(=O)N[C@@H](C)C(=O)N[C@H](C(=O)N[C@H](C(=O)N[C@@H](Cc1ccccc1)C(=O)N[C@H](C(=O)N[C@@H](CS)C(=O)NCC(=O)NCC(=O)N[C@@H](CO)C(=O)N[C@@H](CCCNC(=N)N)C(=O)N[C@@H](Cc1c[nH]c2ccccc12)C(=O)O)[C@@H](C)O)[C@@H](C)CC)C(C)C [relaxin-3 B-chain]
